# Data as given in US6875594B2, “Methods of ligating expressed proteins” (The Rockefeller University, priority 1997, dated 2005).
# Molecular target: AsiA (Enterobacteria phage T4, UniProt P32267)
# Conditions: His-tagged σ fragment on Ni2+-NTA beads, imidazole elution
# Method: The complementary experiment was done using wild type, untagged AsiA. Instead, a synthetic hexahistidine tag was chemically ligated to the N-terminus of σ568-600 as described herein. AsiA and His-tagged σ fragment were loaded on Ni^2+NTA beads, the beads were washed and eluted with increasing concentrations of imidazole in the buffer.
# 100 μl reactions contained 15 μl of Ni^2+-NTA agarose (Qiagen), 50-100 pmol σ^70 or σ^70 derivative, 200 pmol AsiAHis, 20 mM Tris-HCl, pH 7.9, 100 mM KCl, 10 mM MgCl2. Reactions were preincubated for 15 min at room temperature, after which the beads were pelleted by brief centrifugation and the supernatant, containing the unbound material was removed. The beads were then washed three times with the same buffer containing 10 mM imidazole, pH 8.0, resuspended in 50 μl of the buffer containing 100 mM imidazole and incubated for additional 15 min at room temperature. The supernatant containing the bound material was then withdrawn. Aliquots of the reactions were then analyzed on 8-25% Phast gels (Pharmacia) and silver stained.
# Sequence of AsiA (P32267 whole entry, the tested form may be a part): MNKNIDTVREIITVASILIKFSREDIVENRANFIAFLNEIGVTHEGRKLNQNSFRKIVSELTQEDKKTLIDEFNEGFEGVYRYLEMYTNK
substance,measurement,value
His6-Cys-[SCH2]-aminocaproate-σ568-600 [His-tagged σ568-600],"interaction with wild type, untagged AsiA",strong interaction
